Test systems include CAKI-1 renal; MDA-MB-435; MOLT-4 leukemia; NCI-H23 lung; OVCAR-3 ovarian; RXF 393 renal; SK-MEL-5 melanoma; T-47D breast; U251 CNS; SF-539 CNS.
Holding throughout (experiment): growth of human tumour cells (NCI), 48 h

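Tested at 5 concentrations; 48 h exposure; 96-well plates; endpoints linearly interpolated, else capped at highest concentration. At the GI50, growth is halved. The concentration for full growth arrest is given as TGI.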

Turning to `CC[C@H](C)[C@H]1NC(=O)[C@@H](NC(=O)[C@@H](CC(C)C)N(C)CC2CCCN2C(=O)C(C)=O)[C@@H](C)OC(=O)[C@H](Cc2ccc(OC)cc2)N(C)C(=O)C2CCCN2C(=O)[C@H](CC(C)C)NC(=O)[C@@H](C)C(=O)[C@H](C(C)C)OC(=O)C[C@@H]1O` (stereo not given in full), the TGI in the test on CAKI-1 renal worked out at 0.338 µM; with MDA-MB-435 it was 0.0105 µM; in the test on MOLT-4 leukemia it was 0.00608 µM; in the test with NCI-H23 lung, 0.0591 µM; with OVCAR-3 ovarian, 0.0151 µM; in the test with RXF 393 renal, 0.00299 µM. Moreover, the results for the TGI with SK-MEL-5 melanoma, in the test on T-47D breast and in the test on U251 CNS were 0.00843 µM, 0.012 µM and 0.00534 µM, respectively.

On to `COc1cc(CC2c3cc(OC)c(OC)cc3CCN2C)c(Oc2cc3c(cc2OC)-c2c(O)c(OC)cc4c2C(C3)N(C)CC4)cc1OC` (stereo not given), for which the TGI was 68.4 µM in the test on CAKI-1 renal; 94.3 µM in the test on MDA-MB-435; over 100 µM in the test on MOLT-4 leukemia; 42.8 µM with NCI-H23 lung; over 100 µM with OVCAR-3 ovarian; 9.35 µM in the test on RXF 393 renal. Besides, the TGI with SF-539 CNS is 30.3 µM; in the test on SK-MEL-5 melanoma, 32.8 µM; with T-47D breast, 55 µM; in the test with U251 CNS, over 100 µM.

`O=S1(=O)c2ccccc2C(=NO)c2ccccc21`: the TGI in the test on CAKI-1 renal, in the test on MDA-MB-435, with MOLT-4 leukemia, with NCI-H23 lung, in the test with OVCAR-3 ovarian and in the test with RXF 393 renal was over 100 µM throughout. Moreover, the TGI in the test with SF-539 CNS, with SK-MEL-5 melanoma, in the test on T-47D breast and with U251 CNS was over 100 µM each time.

As to `O=C(c1ccccc1)c1ccc2nc(-c3c(Cl)c(Cl)c(Cl)c(Cl)c3C(=O)N/N=C/c3ccccc3)[nH]c2c1`, the TGI in the test with CAKI-1 renal is over 100 µM; with MDA-MB-435, 90.8 µM; with MOLT-4 leukemia, 54.1 µM; in the test with NCI-H23 lung, 80.9 µM; in the test on OVCAR-3 ovarian, 54.3 µM; with RXF 393 renal, 73.2 µM. In addition, the TGI with SF-539 CNS is over 100 µM; in the test on SK-MEL-5 melanoma, 33.4 µM; in the test on T-47D breast it was 74.3 µM; with U251 CNS it was over 100 µM.

Regarding `N#Cc1c(N2CCCC2)ncn(Cc2ccccc2)c1=O`, the TGI in the test with MDA-MB-435, with MOLT-4 leukemia, in the test on OVCAR-3 ovarian, in the test with RXF 393 renal, in the test with SF-539 CNS and in the test with SK-MEL-5 melanoma was over 100 µM in each case. Also, the TGI with T-47D breast and in the test on U251 CNS was over 100 µM in each case.

Consider `COC(=O)n1c(=O)n(-c2ccccc2)c(=O)n1C(=O)OC`, for which the TGI in the test on CAKI-1 renal, in the test on MDA-MB-435, with MOLT-4 leukemia, in the test with NCI-H23 lung, in the test with OVCAR-3 ovarian and with RXF 393 renal was over 100 µM in each case. In addition, the TGI with SF-539 CNS, with SK-MEL-5 melanoma, with T-47D breast and with U251 CNS was over 100 µM throughout.

Take `O=C(NC1CCN(Cc2ccccc2)CC1)c1cc2nc(-c3ccc(Cl)s3)cc(C(F)(F)F)n2n1`: the GI50 in the test on CAKI-1 renal was over 100 µM; with MDA-MB-435, over 100 µM; in the test on MOLT-4 leukemia it was over 100 µM; with NCI-H23 lung, over 100 µM; with OVCAR-3 ovarian it was 42.4 µM; in the test on RXF 393 renal, 3.23 µM. For the same compound, the GI50 in the test with SF-539 CNS was over 100 µM; in the test with SK-MEL-5 melanoma, 6.34 µM; with T-47D breast it was 41.3 µM; in the test on U251 CNS it was 5.98 µM. The TGI in the test on CAKI-1 renal, with MDA-MB-435, with MOLT-4 leukemia, in the test with NCI-H23 lung, in the test with OVCAR-3 ovarian and in the test with RXF 393 renal was over 100 µM throughout. In addition, the TGI in the test with SF-539 CNS, with SK-MEL-5 melanoma, in the test with T-47D breast and with U251 CNS was over 100 µM throughout.

`Nc1ccccc1N/C=C\C(=O)C(Cl)(Cl)Cl`: the TGI is 51.3 µM in the test with CAKI-1 renal; 28 µM in the test with MDA-MB-435; over 100 µM in the test with MOLT-4 leukemia; 59.9 µM with NCI-H23 lung; 45.2 µM in the test with RXF 393 renal; over 100 µM in the test on SF-539 CNS. Also, the TGI in the test with SK-MEL-5 melanoma was over 100 µM; with T-47D breast, 43.1 µM; in the test on U251 CNS it was 56.9 µM.

Regarding `CCCNC(C#N)c1ccc(C(C#N)NCCC)cc1` (stereo not given), the TGI in the test with CAKI-1 renal, with MDA-MB-435, with MOLT-4 leukemia, in the test on NCI-H23 lung, in the test with OVCAR-3 ovarian and with RXF 393 renal was over 100 µM throughout. In addition, the TGI with SF-539 CNS, in the test with SK-MEL-5 melanoma, in the test with T-47D breast and in the test on U251 CNS was over 100 µM throughout.

Consider `CNC(=O)c1cc(NC(=O)N(CCC#N)CCN(C(=O)N[C@@H](Cc2ccccc2)C(=O)N[C@@H](CC(C)C)C(=O)NC)c2ccccc2)ccc1OC`, for which the TGI with CAKI-1 renal is over 100 µM; with MDA-MB-435, over 100 µM; with MOLT-4 leukemia, over 100 µM; in the test on NCI-H23 lung, over 100 µM; in the test on OVCAR-3 ovarian it was over 100 µM; in the test on RXF 393 renal, 99.4 µM. Also, the TGI is over 66.3 µM in the test with SF-539 CNS, over 69.2 µM with SK-MEL-5 melanoma, over 85.9 µM with T-47D breast and over 100 µM with U251 CNS.

With `COC(OC)C1OC(CO)C(n2ccc(N)nc2=O)C1O` (stereo not given), the TGI with CAKI-1 renal, in the test with MDA-MB-435, in the test on MOLT-4 leukemia, in the test on NCI-H23 lung, with OVCAR-3 ovarian and in the test with RXF 393 renal was over 100 µM in each case. Besides, the TGI in the test with SF-539 CNS, with SK-MEL-5 melanoma, in the test with T-47D breast and in the test with U251 CNS was over 100 µM each time.

For `CN(NC(=O)CCCl)C1=NCCCCN1`, the TGI in the test on MDA-MB-435, with MOLT-4 leukemia, in the test with NCI-H23 lung, in the test on OVCAR-3 ovarian, in the test on RXF 393 renal and in the test with SF-539 CNS was over 100 µM each time. The TGI in the test with SK-MEL-5 melanoma, in the test with T-47D breast and in the test on U251 CNS was over 100 µM each time.

These data come from PubChem BioAssay (NCI).
